Reference: patent US20140377289A1, “Metallodrugs Having Improved Pharmacological Properties, and Methods of Manufacture and Use Thereof” (MetalloPharm, LLC, priority 2011, published 2014)
Read-outs that look alike come from different tables or passages of the source. Where a SMILES comes first, the peptide text is derived from it. Where no end group is shown, it is not given here. [ ]: non-standard residue; d: D form. The star is where a group is joined. X1 = COCCOCCOCCOCCOCCOCCOCCOCCOCCOCCOCCOCCOCCOCCOCCOCCOCCOCCOCCOCCOCCOCCOCCOCCNC(=O)CCN1C(=O)CC(*)C1=O

Tests used:
[1] = target: T1, Recombinant human somatic ACE (sACE-1) (Homo sapiens, UniProt P12821); experiment: Determination of IC50 values, sACE-1 fluorogenic substrate cleavage; format: biochemical
T1 construct: sACE-1: Leu30-Leu1261, with C-terminal His tag; His tag (C); purchased R&D Systems; host or cells: NS0-derived murine myeloma cell line
T1 sequence (P12821 30-1261): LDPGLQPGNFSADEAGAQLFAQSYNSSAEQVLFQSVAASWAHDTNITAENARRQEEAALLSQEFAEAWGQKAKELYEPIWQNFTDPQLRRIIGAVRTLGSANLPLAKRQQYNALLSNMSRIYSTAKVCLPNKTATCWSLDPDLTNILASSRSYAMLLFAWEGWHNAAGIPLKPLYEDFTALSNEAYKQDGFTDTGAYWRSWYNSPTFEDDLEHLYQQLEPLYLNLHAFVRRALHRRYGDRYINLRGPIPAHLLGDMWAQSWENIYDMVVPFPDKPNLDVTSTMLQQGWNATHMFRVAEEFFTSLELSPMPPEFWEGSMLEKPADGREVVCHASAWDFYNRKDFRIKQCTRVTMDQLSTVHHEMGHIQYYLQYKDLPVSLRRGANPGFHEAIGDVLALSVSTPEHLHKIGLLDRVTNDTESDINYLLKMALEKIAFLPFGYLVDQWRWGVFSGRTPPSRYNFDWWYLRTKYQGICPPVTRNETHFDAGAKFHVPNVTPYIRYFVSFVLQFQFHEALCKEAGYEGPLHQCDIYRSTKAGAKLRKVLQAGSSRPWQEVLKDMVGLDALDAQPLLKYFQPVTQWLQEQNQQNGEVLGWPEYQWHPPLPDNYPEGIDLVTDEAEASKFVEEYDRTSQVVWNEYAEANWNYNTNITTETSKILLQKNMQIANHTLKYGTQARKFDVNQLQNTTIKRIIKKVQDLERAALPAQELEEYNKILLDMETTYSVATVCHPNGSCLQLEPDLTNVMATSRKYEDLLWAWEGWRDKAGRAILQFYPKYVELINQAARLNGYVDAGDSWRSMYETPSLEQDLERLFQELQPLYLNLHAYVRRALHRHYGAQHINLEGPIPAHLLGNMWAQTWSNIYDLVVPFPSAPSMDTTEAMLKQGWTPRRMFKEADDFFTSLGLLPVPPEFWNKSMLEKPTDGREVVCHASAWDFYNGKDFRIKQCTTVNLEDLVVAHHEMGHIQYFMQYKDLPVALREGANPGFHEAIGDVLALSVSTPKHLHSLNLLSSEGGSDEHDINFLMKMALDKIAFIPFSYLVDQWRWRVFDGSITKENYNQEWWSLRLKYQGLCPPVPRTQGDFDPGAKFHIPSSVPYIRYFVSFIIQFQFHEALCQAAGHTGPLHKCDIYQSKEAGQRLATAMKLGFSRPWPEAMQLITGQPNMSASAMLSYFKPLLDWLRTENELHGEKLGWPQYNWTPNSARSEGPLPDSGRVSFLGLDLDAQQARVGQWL

pUC19 plasmid DNA = experiment: DNA nicking and linearization nuclease assay; format: biochemical; details: 10 μM base pairs pUC19; ascorbate/peroxide; — = Below detection limit
[2] = target: T1, Recombinant human somatic ACE (sACE-1); experiment: Time-dependent inactivation of sACE-1; format: biochemical; details: pH 7.4, 37° C.
Procedure: Time-Dependent Inactivation of sACE-1. sACE-1 and each M-chelate-lisinopril complex (prepared in the absence of Zn^2+) were preincubated for 20 min at 37° C. in a buffer containing 50 mM HEPES, 300 mM NaCl, 10 μM ZnCl2, 0.05% Brij35, pH 7.4, and after 20 min, coreactants ascorbate and/or H2O2 (or no coreactants) were added to initiate each reaction. Reaction concentrations were 1 nM sACE-1, a concentration of M-chelate-lisinopril that gave approximately 80% activity (calculated by use of equation (1), where A=80%; concentrations listed in the table in paragraph [00132]), and 1 mM ascorbate and/or H2O2 (or no coreactants). Each time-dependent ACE-inactivation reaction proceeded at 37° C. for a period of 2 h, and at each specific intervening time point, a 68.6 μL, aliquot of the reaction mixture containing sACE-1 was mixed with 1.4 μL of 0.5 mM fluorogenic substrate in a fluorescence cuvette. Substrate cleavage by sACE-1 was immediately monitored by real-time fluorimetry at 37° C., with excitation at 320 nm and emission at 405 nm. Initial rates were determined for each time point for the time-dependent inactivation of sACE-1, and these initial rates were expressed as a percentage (% maximal activity) of the average of several initial rates for uninhibited substrate cleavage by sACE-1, determined in the absence of both M-chelate-lisinopril complexes and coreactants. Plots of % maximal activity vs. time were fit to a first-order exponential decay model, and initial rates of inactivation of sACE-1 by M-chelate-lisinopril complexes were determined. Second-order rate constants for inactivation of sACE-1 were obtained using equation (2), where k2 is the second-order rate constant (M^−1 min^−1), R is the initial rate of enzyme inactivation (M/min) after subtraction of the corresponding background rate in the absence of M-chelate-lisinopril complex, but with the same coreactants, [I] is the concentration of M-chelate-lisinopril complex used (M), and [E] is the concentration of sACE-1 used (1×10^−9 M). Control experiments with M-chelate complexes lacking attached lisinopril were performed in the same manner and conditions used for the respective M-chelate-lisinopril complexes.

full length sACE-1 = target: T2, full length sACE-1 (Homo sapiens, UniProt P12821); experiment: Cleavage of full length sACE-1 monitored by SDS-PAGE; format: biochemical; details: Ascorbate, pH 7.4, 37° C.
T2 construct: sACE-1: Leu30-Leu1261, with C-terminal His tag; His tag (C); purchased R&D Systems; host or cells: NS0-derived murine myeloma cell line
T2 sequence (P12821 30-1261): as above

in vitro = details: human
[3] = system: HCV RNA replicon in ET (luc-ubi-neo/ET) Huh7 cells; details: read-out: antiviral IC50; 72 h, replicon-derived Luc activity
HCV protease [4] = target: T3, HCV protease (Hepatitis C virus genotype 1a, UniProt P27958); experiment: biochemical; format: binding; details: apparent binding affinity
T3 sequence (P27958 1027-1208, other chains not shown): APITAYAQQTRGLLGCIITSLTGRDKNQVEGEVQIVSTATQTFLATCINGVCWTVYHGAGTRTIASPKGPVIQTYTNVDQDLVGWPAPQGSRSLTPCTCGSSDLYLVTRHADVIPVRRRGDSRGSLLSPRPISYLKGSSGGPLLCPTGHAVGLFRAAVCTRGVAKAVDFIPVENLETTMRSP
Text: (§1) This stems from the relationship between affinity and the on/off rate constants for binding (KA=kon/koff), where higher affinity binding is promoted by larger kon and/or smaller koff values. By contrast, efficient catalytic turnover requires koff values that are preferably no smaller than the rate constant for the inactivation chemistry (kcat), to ensure the availability of metallodrug catalyst for new target molecules, and will be best promoted by relatively high values for both kon and koff, which will result in weaker KA values.
(§2) Apparent binding affinities and rates of inactivation for HCV protease by several metallopeptide derivatives incorporating a Cu-GGH metal binding domain and C-terminal HCV protease targeting peptides were prepared and their affinity and reactivity were evaluated under in the presence of various redox reagents. Affinities lay within the range of 10^4M^−1 and 5×10^8 M^−1.

HCV protease [5] = target: T3, HCV protease; format: biochemical
Text: as §1, §2

[6] = system: stem loop IIb HCV IRES RNA; format: biochemical, hepatitis C virus (HCV); details: cleavage of stem-loop IIb; 100 nM catalyst, 1 mM ascorbate, 1 mM H2O2
Procedure: (§3) HCV IRES RNA cleavage was monitored in vitro by fluorescence using 5′ fluorescein end-labeled RNA with excitation and emission wavelengths of 485 nm and 518 nm, respectively. Reactions were carried out in reaction volumes of 100 μl in the presence of 1 mM ascorbate and 1 mM H2O2 in 20 mM HEPES buffer (pH=7.4), 100 mM NaCl with 100 nM of the catalyst and analyzed according to the change in fluorescence observed as the reaction occurred. Both a time-dependence and a concentration-dependence of RNA substrate were observed. The initial velocities were fit to a line using Origin 7.0 software and kobs obtained. These values were then used to obtain the Michaelis-Menten parameters.
The reactivity of select catalytic metallodrugs was investigated by Michaelis-Menten profiles. Reaction chemistry was followed by monitoring the fluorescence change of 5′-fluorescein-labeled RNA as a function of time. Initial velocities were measured as a function of substrate (RNA) concentration to generate a standard Michaelis-Menten plot (FIG. 2).

[7] = system: stem-loop IIb of HCV IRES RNA; format: binding, hepatitis C virus (HCV); details: stem-loop IIb
Procedure: (§4) RNA was purchased from Dharmacon, part of Thermo Fisher Scientific (Lafayette, Colo.). Peptides were purchased from Genemed Synthesis Inc (South San Francisco, Calif.) with C-terminal amidation. The stem-loop (SL) structure (from Lytle et al., RNA 13: 539-48, 2002) is depicted in FIG. 6. The sequence for the IRES SL IIb RNA used was 5′-Fluorescein-[…]-3′, and for the IRES SL IV RNA was 5′-Fluorescein-[…]-3′. All RNA was annealed by heating to 95° C. and then cooled slowly to room temperature before use.
(§5) RNA binding experiments were performed in the presence of 84 nM GGHYrFK-amide in 20 mM HEPES (pH 7.4), 100 mM NaCl. For GGHYrFK-amide, serial additions of unlabeled IRES RNA were added and tyrosine emission was monitored (λex=280 nm, λem=313 nm). Binding data for GGHYr[…]-amide and GGHYr[…]-amide were obtained by adding serial additions of peptide to 5′-fluorescein labeled IRES SLIIb and monitoring at 518 nm (Ex=485 nm). Data was then fit to a one-site binding model.

[8] = system: stem loop IV HCV IRES RNA; format: binding, hepatitis C virus (HCV)
Procedure: as §4, §5

[9] = system: stem loop IV HCV IRES RNA; format: biochemical, hepatitis C virus (HCV); details: cleavage of stem loop IV; 100 nM catalyst, 1 mM ascorbate, 1 mM H2O2
Procedure: as §3

HCV protease [10] = target: T3, HCV protease; details: cited from earlier work

Compound `COCCOCCOCCOCCOCCOCCOCCOCCOCCOCCOCCOCCOCCOCCOCCOCCOCCOCCOCCOCCOCCOCCOCCOCCNC(=O)CCN1C(=O)CC(SC[C@H](NC(=O)CNC(=O)CNC(=O)[C@H](CCCCN)NC(=O)[C@H](Cc2ccccc2)NC(=O)[C@@H](CCCNC(=N)N)NC(=O)[C@H](Cc2ccc(O)cc2)NC(=O)CNC(=O)[C@H](Cc2c[nH]cn2)NC(=O)CNC(=O)CN)C(N)=O)C1=O` (some centres unmarked) [Cu-GGHGYrFKGGC-PEG24] (H-GGHGY[dR]FKGGC(X1)-NH2) has a CC50 of over 50 µM.
Work on `COCCOCCOCCOCCOCCOCCOCCOCCOCCOCCOCCOCCOCCOCCOCCOCCOCCOCCOCCOCCOCCOCCOCCOCCOCCOCCOCCOCCOCCOCCOCCOCCOCCOCCOCCOCCOCCOCCOCCOCCOCCOCCOCCOCCOCCOCCOCCOCCNC(=O)CCN1C(=O)CC(SC[C@H](NC(=O)CNC(=O)CNC(=O)[C@H](CCCCN)NC(=O)[C@H](Cc2ccccc2)NC(=O)[C@@H](CCCNC(=N)N)NC(=O)[C@H](Cc2ccc(O)cc2)NC(=O)CNC(=O)[C@H](Cc2c[nH]cn2)NC(=O)CNC(=O)CN)C(N)=O)C1=O` (some centres unmarked) [Cu-GGHGYrFKGGC-PEG48] yielded a CC50 of over 50 µM.
With `NCC(=O)NCC(=O)N[C@@H](Cc1c[nH]cn1)C(=O)O` [Cu-GGH] (H-Gly-Gly-His-OH) the IC50 [1] was 17 µM, the “klin for DNA linearization, without attached Rev (M-chelate)” value (“klin … without attached Rev (M-chelate)” below) (pUC19 plasmid DNA) was 0.0012 ± 0.0002 min⁻¹ and the “knick for DNA nicking, without attached Rev (M-chelate)” value (pUC19 plasmid DNA) was 0.06 ± 0.01 min⁻¹. The kinact/KI ([2]; pH 7.4, read-out: Second order rate constant for inactivation of sACE-1, M-chelate without lisinopril, Ascorbate + H2O2) was 167 M⁻¹ s⁻¹, the kinact/KI ([2]; pH 7.4, read-out: Second order rate constant for inactivation of sACE-1, M-chelate without lisinopril, Ascorbate) was under 16.7 M⁻¹ s⁻¹ and the kinact/KI ([2]; pH 7.4, read-out: Second order rate constant for inactivation of sACE-1, M-chelate without lisinopril, H2O2) was under 33.3 M⁻¹ s⁻¹.
For `O=C([O-])CN(CC(=O)[O-])CC(=O)O.[Cu+2]` [Cu-NTA], the IC50 ([1]; 1 nM sACE-1, 20 min preincubation, 37° C., pH 7.4, read-out: IC50's) was 36 µM, the “klin … without attached Rev (M-chelate)” value (pUC19 plasmid DNA) was 0.0032 ± 0.0004 min⁻¹ and the “knick for DNA nicking, without attached Rev (M-chelate)” value (pUC19 plasmid DNA) was 0.148 ± 0.007 min⁻¹.
In the case of `O=C([O-])CN(CCN(CC(=O)[O-])CC(=O)[O-])CC(=O)[O-].[Fe+3]` [Fe-EDTA], the “Second order rate constant for cleavage of full length sACE-1 (in brackets), M-chelate without lisinopril” value (full length sACE-1) is reported as “{<100,000} M^−1min^−1”, the “klin … without attached Rev (M-chelate)” value (pUC19 plasmid DNA) is reported as 0.0005 ± 0.0001 min⁻¹ and the “knick for DNA nicking, without attached Rev (M-chelate)” value (pUC19 plasmid DNA) is reported as 0.044 ± 0.009 min⁻¹. For the same compound, the “Second order rate constant for inactivation of sACE-1, M-chelate without lisinopril” value ([2]; Ascorbate) was 10,000 ± 50,000 M^−1min^−1.
For `CC[C@H](C)[C@H](NC(=O)[C@H](CCCCN)NC(=O)[C@H](C)NC(=O)[C@H](CCC(=O)O)NC(=O)[C@H](CC(C)C)NC(=O)[C@H](C)NC(=O)[C@H](C)N)C(=O)N[C@@H](CS)C(=O)N[C@@H](Cc1c[nH]cn1)C(=O)N[C@@H](CCC(N)=O)C(=O)N[C@H](C(=O)N[C@@H](CCC(=O)O)C(=O)N[C@@H](Cc1ccc(O)cc1)C(=O)N[C@@H](Cc1ccc(O)cc1)C(=O)N[C@@H](Cc1ccccc1)C(=O)NCC(=O)N[C@@H](CC(=O)O)C(=O)N[C@@H](Cc1ccccc1)C(N)=O)[C@@H](C)CC` [reference compound] (H-AALEAKICHQIEYYFGDF-NH2), the CC50 at 72 h (in vitro) was over 100 µM and the IC50 [3] was over 100 µM.
For `CC[C@H](C)[C@H](NC(=O)[C@H](CC(C)C)NC(=O)[C@H](CC(C)C)NC(=O)[C@H](CC(=O)O)NC(=O)[C@@H](NC(=O)[C@H](CCC(=O)O)NC(=O)[C@H](CCCCN)NC(=O)[C@H](Cc1ccc(O)cc1)NC(=O)[C@@H](N)CCCCN)[C@@H](C)O)C(=O)N[C@@H](CC(C)C)C(=O)N[C@@H](Cc1ccccc1)C(=O)N[C@@H](CCCCN)C(=O)N[C@@H](CC(=O)O)C(=O)N[C@@H](CC(=O)O)C(=O)N[C@@H](Cc1ccc(O)cc1)C(=O)N[C@@H](Cc1ccccc1)C(=O)N[C@@H](C)C(=O)N[C@@H](CCCCN)C(=O)N[C@@H](CCCCN)C(=O)N[C@@H](CC(N)=O)C(=O)N[C@@H](CCC(=O)O)C(=O)N[C@@H](CCC(=O)O)C(=O)N[C@@H](CCCNC(=N)N)C(=O)N[C@@H](CCCCN)C(N)=O` [reference compound] (H-KYKETDLLILFKDDYFAKKNEERK-NH2), the CC50 at 72 h (in vitro) was over 100 µM and the IC50 [3] was over 100 µM.
With Cu-GGHGDEMEEC the KA (HCV protease [4]) was 48000 M⁻¹, the “rate constant for inactivation kinact (catalytic efficiency)” value (HCV protease [5]; in the presence of ascorbate/O2) was about 1.6 h⁻¹ and the kinact (HCV protease [5]; in the presence of various redox reagents) was 0.04 min⁻¹.
Compound Cu-GGHKYKETDLLILFKDDYFAKKNEERK-amide has a Vmax [6] of 13.96 RFU/min, a KA [7] of 556000 M⁻¹ and a Kd [7] of 1.8 µM. It also gave a KA [8] of 143000 M⁻¹, a Kd [8] of 7 µM and a Vmax [9] of 2.0 RFU/min.
Work on “Cu-GGHYRFK-amide (GGHYRFK-NH2; also: Cu complex)” yielded a Vmax [6] of 3.96 RFU/min, a KA [7] of 145000 M⁻¹ and a Kd [7] of 6.9 µM. The KA [8] was 145000 M⁻¹, the Kd [8] was 6.9 µM and the Vmax [9] was 0.95 RFU/min.
In the case of DDIVPC [Asp-Asp-Ile-Val-Pro-Cys], the Ki (HCV protease [10]) is given as 79 µM.
